Assay results reported in paper PMC10002963, “[4+2]-Cycloaddition to 5-Methylidene-Hydantoins and 5-Methylidene-2-Thiohydantoins in the Synthesis of Spiro-2-Chalcogenimidazolones” (International Journal of Molecular Sciences, 2023).
≈ marks a conversion by molar mass, not a printed value. Where two headings read alike, the source gives them in different places.

Columns and labels:
MCF7 cell line = test: MTT cytotoxicity assay, MCF7; format: cell-based, human; details: MCF7, 65-h treatment, MTT, Cmax 100 µM
Method: (§1) Some of the obtained spiro-derivatives were tested for cytotoxicity using the standard MTT assay. Cytotoxicity was evaluated using the cell lines of various etiologies: breast cancer MCF7, human lung carcinoma A549, non-cancer human embryonic kidney cell line HEK293T, and non-cancer lung fibroblast VA13 cell line. Lung cancers and breast cancers are among the most common causes of tumor lesions and related death in the world, and non-cancerous cells were applied for the specificity of action evaluation. The results are shown in Table 5; the dose-response dependency graphs are available in Supplementary Information.
(§2) Cell cultures. Human embryonic kidney HEK293T cell line was kindly provided by Dr. E. Knyazhanskaya; immortalized human fibroblasts cell line VA13 was kindly provided by Dr. M. Rubtsova; human breast cancer cell line MCF7 and human lung adenocarcinoma cell line A549 were kindly provided by Dr. S. Dmitriev. MCF7, VA13, A549, and HEK293T cell lines were maintained in DMEM/F-12 (Thermo Fisher Scientific, Waltham, Massachusetts, USA) culture medium containing 10% fetal bovine serum (Thermo Fisher Scientific, Waltham, Massachusetts, USA) and 50 µg/mL penicillin and 0.05 mg/mL streptomycin at 37°C (Thermo Fisher Scientific, Waltham, Massachusetts, USA) in 5% CO2. Cells were maintained at 37°C in a humidified incubator MCO-18AC (Sanyo, Japan) supplied with 5% CO2. Cell cultures were tested for the absence of mycoplasma.
(§3) In Vitro Survival Assay (MTT Assay). The cytotoxicity was tested using the MTT (3-(4,5-dimethylthiazol-2-yl)2,5-diphenyl tetrazolium bromide) assay with some modifications. A total of 2500 cells per well for the MCF7, HEK293T cell lines, 3000 cells for the A549 cell line, or 4000 cells per well for the VA-13 cell line were plated out in 135 µL of DMEM-F12 media (Gibco, USA) in a 96-well plate and then incubated in the 5% CO2 incubator for first 20 h without treating. After this, 15 µL of media-DMSO solutions of tested substances were added to the cells (final DMSO concentrations in the media were 0,5% or less) and treated for65 h with 45 nM–100 µM (eight dilutions) of our substances (triplicate each) and doxorubicin as a control substance. Then the MTT reagent (Paneco LLC, Moscow, Russia) was added to cells up to the final concentration of 0.5 g/L (10 × stock solution in PBS was used), and cells were incubated for 2 h at 37 °C under an atmosphere of 5% CO2. Then the MTT solution was discarded, and 140 µL of DMSO (PharmaMed LLC, Russia) was added. The plates were swayed on a shaker (200 rpm) to dissolve the formazan. The absorbance was measured using a microplate reader (VICTOR ×5 Light Plate Reader, PerkinElmer, USA) at a wavelength of 555 nm (in order to measure formazan concentration). The results were used to construct dose-response graphs and to estimate IC50absvalues (IC50abs is the concentration resulting in a two-fold decrease in the number of cells in comparison with the untreated cells) and, in some cases, IC50 values (IC50 is the concentration resulting in half of the maximal cytotoxic effect) with GraphPadSoftware, Inc., San Diego, CA, USA.

VA13 cell line = test: MTT cytotoxicity assay, VA13; format: cell-based, human; details: VA13, 65-h treatment, MTT, Cmax 100 µM
Method: as §1, §2, §3

A549 cell line = test: MTT cytotoxicity assay, A549; format: cell-based, human; details: A549, 65-h treatment, MTT, Cmax 100 µM
Method: as §1, §2, §3

HEK293T cell line = test: MTT cytotoxicity assay, HEK293T; format: cell-based, human; details: 65-h treatment, Cmax 100 µM, read-out: IC50abs
Method: as §1, §2, §3

E. coli BW25113 DTC = test: Minimal inhibitory concentration, E. coli BW25113 DTC; format: cell-based, Escherichia coli
Method: (§4) Then the minimal inhibitory concentration (MIC) was measured for E. coli BW25113 DTC and E. coli K-12 (WT) for the 12 most bacteriotoxic compounds from the plate test.
(§5) Determination of Minimal Inhibitory Concentration (MIC). MIC values were determined by monitoring growth in 96-well plates of E. coli cultures exposed to serial dilutions of compounds. Specifically, overnight E. coli BW25113 DTC and K12 cultures were diluted in 96-well plates to an OD590 of 0.01 in LB medium. The wells were then supplemented with the solution of each tested compound at concentrations of 1 mM, 500 µM, 250 µM, 125 µM, 62.5 µM, 31.25 µM, 15.63 µM, 7.81 µM, 3.91 µM, and 1.95 µM. Then the plates were incubated with shaking (200 r.p.m.) overnight at 37°C, and cell growth was assessed by scanning OD590 each well with a VictorX5 reader.

E. coli K-12 (WT) = test: Minimal inhibitory concentration, E. coli K-12; format: cell-based, Escherichia coli; details: LB medium, overnight 37°C, >1000 = inactive in this test
Method: as §4, §5

[1] = E. coli BW25113 DTC, LB medium, overnight 37°C, >1000 = inactive in this test
[2] = Homo sapiens, marked **, read-out: IC50abs, calculated by data extrapolation, exceeds Cmax
[3] = Homo sapiens, VA-13, read-out: IC50abs
[4] = Homo sapiens, read-out: IC50abs

Row | Structure (SMILES) | IC50 (MCF7 cell line; read-out: IC50abs) | IC50 (VA13 cell line; read-out: IC50abs) | IC50 (A549 cell line; read-out: IC50abs) | IC50 (HEK293T cell line; Homo sapiens, HEK-293T) | IC50 (VA13 cell line; [3]) | IC50 (A549 cell line; [4]) | IC50 (MCF7 cell line; [4]) | MIC (E. coli BW25113 DTC; Escherichia coli, BW25113) | MIC (E. coli K-12 (WT); Escherichia coli) | also measured
1 | COc1ccc(N2C(=O)C3(CC4C=CC3C4)NC2=S)cc1 (stereo not shown) [Compound 39b] | > 100 µM | > 100 µM | > 100 µM | – | – | – | – | – | – | –
2 | O=C1NC2(C(=O)N1c1ccccc1)C1C=CC(C1)C2Br (stereo not shown) [Compound 40a] | > 100 µM | > 100 µM | > 100 µM | – | – | – | – | – | – | IC50 (HEK293T cell line): 56.4 ± 2.5 µM; MIC (E. coli BW25113 DTC; [1]): 1000 µM (≈ 333 µg/mL); MIC (E. coli K-12 (WT)): >1000 µM
3 | O=C1NC2(C(=O)N1c1ccccc1)C1C=CC(C1)C2I (stereo not shown) [Compound 41a] | > 100 µM | > 100 µM | > 100 µM | – | – | – | – | – | – | IC50 (HEK293T cell line): 69.1 ± 4.8 µM; MIC (E. coli BW25113 DTC; [1]): 1000 µM (≈ 380 µg/mL); MIC (E. coli K-12 (WT)): >1000 µM
4 | O=C1N(c2ccccc2)C(=S)NC12CC1C=CC2CC1 (stereo not shown) [Compound 45a] | – | – | – | 21.3 ± 2.3 µM | > 100 µM | 85.2 ± 10.1 µM | – | – | – | IC50 (MCF7 cell line; [2]): > 100 µM
5 | Cc1cccc(C)c1N1C(=O)C2(CC3C=CC2CC3)NC1=S (stereo not shown) [Compound 51a] | – | – | – | > 100 µM | > 100 µM | > 100 µM | > 100 µM | > 1000 µM | > 1000 µM | –
6 | COc1cccc(N2C(=O)C3(CCC(C)=C(C)C3)NC2=S)c1 (stereo not shown) [Compound 57] | – | – | – | 18.3 ± 1.7 µM | 80.8 ± 13.7 µM | 35.4 ± 4.8 µM | 50.6 ± 5.2 µM | – | – | –
7 | CC1=C(C)CC2(CC1)NC(=S)N(c1ccc(Cl)cc1)C2=O (stereo not shown) [Compound 59] | 76.6 ± 16 µM | 52.6 ± 7.8 µM | 26.2 ± 3.9 µM | – | – | – | – | – | – | IC50 (HEK293T cell line): 4.4 ± 0.6 µM
8 | CC1=C(C)CC2(CC1)NC(=S)N(c1ccc(F)c(Cl)c1)C2=O (stereo not shown) [Compound 62] | – | – | – | 6.8 ± 0.3 µM | 9.8 ± 0.4 µM | 7.9 ± 0.4 µM | 11.1 ± 0.6 µM | 1000 µM (≈ 339 µg/mL) | > 1000 µM | –
9 | CSC1=NC2(CC3C=CC2C3)C(=O)N1c1ccccc1 (stereo not shown) [Compound 72] | – | – | – | 60.1 ± 3.4 µM | > 100 µM | > 100 µM | > 100 µM | 500 µM (≈ 142 µg/mL) | > 1000 µM | –
10 | O=C1N[C@@]2(C[C@@H]3C=C[C@H]2C3)C(=O)N1c1ccccc1Cl [Compound 75] | – | – | – | 99 ± 11.1 µM | > 100 µM | > 100 µM | > 100 µM | 500 µM (≈ 144 µg/mL) | > 1000 µM | –
11 | Cc1cccc(N2C(=O)N[C@@]3(C[C@@H]4C=C[C@H]3C4)C2=O)c1 [Compound 76] | – | – | – | 48.6 ± 2.4 µM | – | – | 86.4 ± 7.3 µM | 125 µM (≈ 33.5 µg/mL) | > 1000 µM | IC50 (VA13 cell line; Homo sapiens, VA-13, marked **, read-out: IC50abs, calculated by data extrapolation, exceeds Cmax): > 100 µM; IC50 (A549 cell line; [2]): > 100 µM
12 | COc1cccc(N2C(=O)NC3(CCC(C)=C(C)C3)C2=O)c1 (stereo not shown) [Compound 77] | – | – | – | – | – | – | – | 125 µM (≈ 37.5 µg/mL) | – | –
